According to patent US20260258039A1, “AROMATIC COMPOUND, METHOD FOR PREPARING SAME, AND USE THEREOF IN PREPARATION OF ESTROGEN RECEPTOR DEGRADER” (Hinova Pharmaceuticals Inc., priority 2022, published 2026):
Read-outs that look alike come from different tables or passages of the source.

Experiments:
Format in all cases: cell-based
ER [1] = target: T1, ER (Homo sapiens, UniProt P03372); test: Degradation activities on ER (Western blotting) in T47D breast cancer cells; settings: 24 h, Western blot
T1 construct: T47D breast cancer cells were subcultured in cell culture medium; endogenous in cells; host or cells: T47D breast cancer cells
T1 sequence (P03372 1-595): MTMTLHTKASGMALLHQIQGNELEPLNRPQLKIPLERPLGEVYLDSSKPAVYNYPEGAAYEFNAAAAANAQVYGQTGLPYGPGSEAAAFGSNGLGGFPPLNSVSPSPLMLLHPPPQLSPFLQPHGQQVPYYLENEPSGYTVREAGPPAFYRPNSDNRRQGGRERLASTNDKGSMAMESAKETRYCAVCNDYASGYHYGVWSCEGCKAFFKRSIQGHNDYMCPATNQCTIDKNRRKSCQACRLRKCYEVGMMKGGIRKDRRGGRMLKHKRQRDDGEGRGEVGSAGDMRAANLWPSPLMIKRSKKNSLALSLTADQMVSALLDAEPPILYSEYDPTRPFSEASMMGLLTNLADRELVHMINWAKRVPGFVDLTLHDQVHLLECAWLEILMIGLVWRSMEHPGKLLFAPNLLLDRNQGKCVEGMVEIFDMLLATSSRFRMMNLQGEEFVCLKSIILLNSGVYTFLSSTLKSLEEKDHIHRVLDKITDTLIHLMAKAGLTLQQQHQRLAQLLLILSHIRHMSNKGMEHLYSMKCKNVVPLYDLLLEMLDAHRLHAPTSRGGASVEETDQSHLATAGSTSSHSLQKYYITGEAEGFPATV
Description: T47D breast cancer cells were subcultured in cell culture medium, and the cells in good growth condition were seeded into 6-well plate at 2 mL/well, with 2.5×10^5 cells per well. The cells were incubated overnight in a 37° C. incubator under 5% CO2. The drug was prepared into 10 mM stock solution with dimethyl sulfoxide (DMSO). Prior to use, the stock solution was diluted with DMSO in a ratio of 1:3. […] of the diluted compound was added to the cell culture wells (to ensure a DMSO concentration of 0.1% in the culture system), and each concentration was repeated twice. The plate were gently shaken to mix. Additionally, the negative control wells (containing equal amount of DMSO) and the positive control wells were set up. After 24 hours of culture, the cells were lysed with RIPA cell lysis buffer to extract proteins, and the protein concentration was measured using a BCA kit. The protein loading buffer (5×) was added, and the plate was heated at 100° C. for 5 min. Then, the sample was stored at −20° C. […] of protein collected from each well was loaded onto a polyacrylamide gel for electrophoresis. The protein is transferred from the polyacrylamide gel to a PVDF membrane, blocked with 5% skim milk at room temperature for 1 h, and incubated overnight at 4° C. with primary antibodies Anti-ERα rabbit mAb (CST, Cat #: 8644S) and Anti-GAPDH rabbit mAb (CST, Cat #: 2118L). The membrane was washed three times with TBST solution, with 10 min for each time. The secondary antibody (horseradish peroxidase-labeled goat anti-rabbit IgG) was incubated at room temperature for 2 h, and then the membrane was washed three times with TBST solution, with 10 min for each time. Finally, ECL chromogenic solution was added for color development, and an automatic chemiluminescence instrument was used to take pictures. Images were collected and analyzed.
The degradation activities of the compounds according to the present invention towards ER, as tested by western blotting, are presented in Table 2

ER [2] = target: T1, ER; test: Degradation activities on ER (ELISA) in T47D breast cancer cells; settings: T47D cells, 24 h, ELISA; for DC50: concentration required to degrade 50% of the target protein; for Dmax: maximum percentage of target protein degraded
In short: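 T47D cells were seeded at 2.5×10^4/well, grown 3 days at 37 °C, 5% CO2, then exposed 24 h to compound at 100, 25, 6.25, 1.56, 0.39 and […] nM (final). ER protein was quantified by sandwich ELISA with HRP/TMB read at 450 nm, and DC50 and Dmax came from dose-response fits.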

[3] = test system: MCF-7 breast cancer cells; test: Inhibition of proliferation of MCF-7 breast cancer cells (agarose culture, CellTiter-Glo 3D); settings: MCF-7 cells, 15 days of cultivation, read-out: IC50
Description: After 1.6% agarose and 0.7% agarose were sterilized at high temperature, they were cooled to around 50° C., and placed in a 42° C. water bath for later use. MCF-7 breast cancer cells were subcultured in complete cell culture medium, and cells in good growth condition were digested and counted for future use. 50 µL of 1.6% agarose mixed with 2× culture medium at a ratio of 1:1 was spread into the bottom of 96-well plate, and allowed to cool and solidify. 0.7% agarose was mixed with diluted cell suspension in a ratio of 1:1, and then 50 µL of the mixture of gel and cells was added to each well, with 2000 cells for each well; the mixture was allowed to cool and solidify at room temperature. 50 μL of culture medium was added to the plate containing cells, and the plate was placed in a 37° C., 5% CO2 incubator and cultured for 24 h. The drug was prepared into 10 mM stock solution with dimethyl sulfoxide (DMSO). The stock solution was diluted in a ratio of 1:3, to obtain 9 concentration gradients. Then, each concentration of compound solution was further diluted with culture medium in 1:250 (to ensure a DMSO concentration of 0.1% in the culture system). Two replicate wells was set for each concentration. 50 μL of the diluted compound solution was added to the cell culture wells (with final concentrations of 10 μM, 3.3 μM, 1.1 μM, 0.37 μM . . . ). The plate was gently shaken for mixing. Additionally, 3 negative control wells only containing cells and 3 blank control wells only containing culture medium were set up (each of the 6 wells was added with 50 μL of DMSO diluted with culture medium in a ration of 1:250). After 15 days of cultivation, the cell plates and CellTiter-Glo 3D Cell Viability were taken out and equilibrated to room temperature in advance. 80 μL of culture medium were aspirated and discarded from the cell plate, and 120 µL of CellTiter-Glo 3D Cell Viability solution was added to each well. The plates were centrifuged at 1200 rpm/min for 5 min, and then placed in the dark and kept for 25 min. The […] were measured using a multi-function microplate reader. The data were analyzed using the Dose-response-inhibition equation in GraphPad Prism8 software, and the IC50 values were obtained, as shown in Table 3.

| Structure (SMILES) | DC50 (ER [2]) | Dmax (ER [2]; read-out: Dmax) | IC50 ([3]; Homo sapiens, MCF7, 360 h) | other results |
| --- | --- | --- | --- | --- |
| O=C1CCC(N2Cc3cc(N4CC5(CN(CC6CCN(c7ccc([C@H]8c9ccc(O)cc9OC[C@H]8c8ccccc8)cc7)CC6)C5)C4)ccc3C2=O)C(=O)N1 (stereo partly drawn) [Example 56, 3-(5-(6-((1-(4-((3R,4S)-7-hydroxyl-3-phenyl-chroman-4-yl)phenyl)piperidin-4-yl)methyl)-2,6-diazaspiro[3.3]heptane-2-yl)-1-oxoisoinodolin-2-yl)piperidin-2,6-one] | – | – | – | Percentage reduction of ER (ER [1]; compound concentration 1 nM): 59% |
| O=C1CCC(N2C(=O)c3ccc(N4CC5(CCN(CC6CCN(c7ccc([C@H]8c9ccc(O)cc9OC[C@H]8c8ccccc8)cc7)CC6)CC5)C4)cc3C2=O)C(=O)N1 (stereo partly drawn) [Example 80, 2-(2,6-dioxopiperidin-3-yl)-5-(7-((1-(4-((3R,4S)-7-hydroxyl-3-phenylchroman-4-yl)phenyl)piperidin-4-yl)methyl)-2,7-diazaspiro[3.5]nonane-2-yl)isoinodolin-1,3-dione] | – | – | – | Percentage reduction of ER (ER [1]; compound concentration 1 nM): 50% |
| O=C1CCC(N2Cc3cc(N4CC5CN(CC6CCN(c7ccc([C@H]8c9ccc(O)cc9OC[C@H]8c8ccccc8)cc7)CC6)CC5C4)ccc3C2=O)C(=O)N1 (stereo partly drawn) [Example 82, 3-(5-(5-((1-(4-((3R,4S)-7-hydroxyl-3-phenylchroman-4-yl)phenyl)piperidin-4-yl)methyl)hexahydropyrrolo[3,4-c]pyrrole-2(1H)-yl)-1-oxoisoinodolin-2-yl)piperidin-2,6-dione] | – | – | – | Percentage reduction of ER (ER [1]; compound concentration 10 nM): 49% |
| CC(C)C[C@H]1COc2cc(O)ccc2[C@H]1c1cc(F)c(N2CCC(CN3CCC4(CC3)CN(c3ccc5c(c3)CN(C3CCC(=O)NC3=O)C5=O)C4)CC2)c(F)c1 (stereo partly drawn) [Example 17, 3-(5-(7-((1-(2,6-difluoro-4-(cis-7-hydroxyl-3-isobutylchroman-4-yl)phenyl)piperidin-4-yl)methyl)-2,7-diazaspiro[3.5]nonane-2-yl)-1-oxoisoinodolin-2-yl)piperidin-2,6-dione] | < 10 nM | 50 to 75% | 11 to 50 nM | – |
| O=C1CCC(N2Cc3cc(N4CC5(CCN(CC6CCN(c7c(F)cc(C8=C(c9c(F)cccc9F)COc9cc(O)ccc98)cc7F)CC6)CC5)C4)ccc3C2=O)C(=O)N1 (stereo not drawn) [Example 42] | < 10 nM | 50 to 75% | 11 to 50 nM | – |
| O=C1CCC(N2Cc3cc(N4CC5(CCN(CC6CCN(c7c(F)cc([C@@H]8c9ccc(O)cc9OC[C@@H]8c8c(F)cccc8F)cc7F)CC6)CC5)C4)ccc3C2=O)C(=O)N1 (stereo partly drawn) [Example 40] | < 10 nM | – | < 10 nM | – |
| O=C1CCC(N2Cc3cc(N4CC5(CCN(CC6CCN(c7ccc([C@H]8c9ccc(O)cc9OC[C@H]8c8ccccc8F)cc7F)CC6)CC5)C4)ccc3C2=O)C(=O)N1 (relative stereo) [Example 87, 3-(5-(7-((1-(2-fluoro-4-(cis-3-(2-fluorophenyl)-7-hydroxybenzopyran-4-yl)phenyl)piperidin-4-yl)methyl)-2,7-diazaspiro[3.5]nonane-2-yl)-1-oxoisoinodolin-2-yl)piperidin-2,6-dione] | < 10 nM | – | – | Dmax (ER [2]): B (B: 75-50%); IC50 [3]: < 10 nM |
| O=C1CCC(N2Cc3cc(N4CC5(CCN(CC6CCN(c7ccc(C8=C(c9c(F)cccc9F)COc9cc(O)ccc98)cc7)CC6)CC5)C4)ccc3C2=O)C(=O)N1 (stereo not drawn) [Example 18, 3-(5-(7-((1-(4-(3-(2,6-difluorophenyl)-7-hydroxyl-2H-chromene-4-yl)phenyl)piperidin-4-yl)methyl)-2,7-diazaspiro[3.5]nonane-2-yl)-1-oxoisoinodolin-2-yl)piperidin-2,6-dione] | < 10 nM | – | – | Dmax (ER [2]): A (A: >75%); IC50 [3]: < 10 nM |
| O=C1CCC(N2Cc3cc(N4CC5(CCN(CC6CCN(c7ccc([C@@H]8c9ccc(O)cc9OC[C@@H]8c8cccc(F)c8F)cc7F)CC6)CC5)C4)ccc3C2=O)C(=O)N1 (stereo partly drawn) [Example 16, 3-(5-(7-((1-(4-((3S, 4R)-3-(2,3-difluorophenyl)-7-hydroxychroman-4-yl)-2-fluorophenyl)piperidin-4-yl)methyl)-2,7-diazaspiro[3.5]nonane-2-yl)-1-oxoisoinodolin-2-yl)piperidin-2,6-dione] | < 10 nM | 50 to 75% | < 10 nM | – |
| O=C1CCC(N2Cc3cc(N4CCC(N5CC6(CCN(c7ccc([C@@H]8c9ccc(O)cc9CC[C@@H]8c8ccccc8F)cc7)CC6)C5)CC4)ccc3C2=O)C(=O)N1 (stereo partly drawn) [Example 22, 3-(5-(4-(7-(4-((1R,2S)-2-(2-fluorophenyl)-6-hydroxyl-1,2,3,4-tetrahydronaphthalen-1-yl)phenyl)-2,7-diazaspiro[3.5]nonane-2-yl)piperidin-1-yl)-1-oxoisoinodolin-2-yl)piperidin-2,6-dione] | < 10 nM | – | < 10 nM | – |

Continued, in another order:

| DC50 (ER [2]) | Dmax (ER [2]; read-out: Dmax) | IC50 ([3]; Homo sapiens, MCF7, 360 h) | Structure (SMILES) | other results |
| --- | --- | --- | --- | --- |
| < 10 nM | – | < 10 nM | O=C1CCC(N2Cc3cc(N4CC5(CCN(CC6CCN(c7c(F)cc([C@@H]8c9ccc(O)cc9OC[C@@H]8c8cccc(F)c8F)cc7F)CC6)CC5)C4)ccc3C2=O)C(=O)N1 (stereo partly drawn) [Example 49, 3-(5-(7-((1-(4-((3S, 4R)-3-(2,3-difluorophenyl)-7-hydroxychroman-4-yl)-2,6-difluorophenyl)piperidin-4-yl)methyl)-2,7-diazaspiro[3.5]nonane-2-yl)-1-oxoisoinodolin-2-yl)piperidin-2,6-one] | – |
| > 100 nM | < 50% | > 50 nM | O=C1CC[C@@H](N2Cc3cc(N4CC5(CCN(CC6CCN(c7c(F)cc([C@@H]8c9ccc(O)cc9OC[C@@H]8c8c(F)cccc8F)cc7F)CC6)CC5)C4)ccc3C2=O)C(=O)N1 [Example 44] | – |
| > 100 nM | < 50% | > 50 nM | O=C1CC[C@@H](N2Cc3cc(N4CC5(CCN(CC6CCN(c7ccc([C@@H]8c9ccc(O)cc9OC[C@@H]8c8c(F)cccc8F)cc7F)CC6)CC5)C4)ccc3C2=O)C(=O)N1 [Example 74, (R)-3-(5-(7-((1-(4-((3S,4R)-3-(2,6-difluorophenyl)-7-hydroxychroman-4-yl)-2-fluorophenyl)piperidin-4-yl)methyl)-2,7-diazaspiro[3.5]nonane-2-yl)-1-oxoisoinodolin-2-yl)piperidin-2,6-dione] | – |
